From patent US5565475A, “Method of treating urinary bladder dysfunctions with 3-tetrahydropyridine derivatives” (priority 1994, dated 1996)
Where a name gives a salt, the structure may show the parent alone.

How the values were obtained:
vesico-anal reflex = experiment: Acetic acid-induced vesico-anal reflex (model of visceral nociception); type: in vivo, rat (female Sprague-Dawley); conditions: for duration of the increase in vesico-anal reflex activity / increases in vesico-anal reflex activity when administered alone: atropine 30 μg/kg-1 mg/kg, oxybutynin 1-3 mg/kg, administered alone
Description: The model of visceral nociception that was used in the testing of the compounds according to the method of this invention is the acetic acid-induced vesico-anal reflex. This model utilizes infusion of a dilute acetic acid solution into the urinary bladder as a nociceptive stimulus and records increases in electromyographic (EMG) activity from the anal sphincter as the primary measured response. Anal sphincter EMG activity is composed of 2 components, 1) a small, long duration action potential (ca. 50 msec) that is sensitive to muscarinic antagonists and 2) a larger, short duration action potential (ca. 2 msec) that is sensitive to neuromuscular blocking agents (i.e. mediated by nicotinic receptors). These components represent rectal longitudinal smooth muscle activity and external anal sphincter striated muscle activity, respectively, and have been described in detail in a separate publication (Muhlhauser reference). It is the striated anal sphincter muscle activity that 1) is associated with bladder activity, 2) is increased by acetic acid infusion into the bladder, and 3) represents the vesico-anal reflex. The acetic acid-inducedincrease in vesico-anal reflex activity is maintained for over 2 hours in 95% of the animals.
In the acetic acid-induced vesico-anal reflex model, bladders of urethane-anesthetized rats were cannulated through the dome for continuous-infusion cystometrogram recordings. EMG electrodes were inserted into the anus and the peri-urethral musculature for recording anal and urethral sphincteric activity, respectively. Infusion of 0.5% acetic acid into the bladder or urethra produced modest increases in bladder contractile activity and urethral sphincter activity and pronounced increases in anal sphincter activity (i.e. an increase in the vesico-anal reflex). […] These studies indicate that a tonically-active, endogenous, cholinergic muscarinic system plays a role in the suppression of visceral nociception arising from the lower urinary tract.
Female Sprague-Dawley rats (200-300 g) were anesthetized with 1.4 g/kg urethane (0.7 g administered i.p. and 0.7 g administered s.c.), which was supplemented with 1% isoflurane during surgery. The urinary bladder was exposed through an abdominal incision and cannulated with PE60 tubing attached to a 22 gauge needle that was inserted through the dome of the bladder. A purse-string suture (5-0 silk) through the bladder held the needle in place. The cannula was connected to an infusion pump (Harvard Apparatus, ratus, Natick Mass.) and a pressure transducer (Statham Gould, Cleveland, Ohio) through a 3 way stopcock to allow bladder filling and pressure measurement, respectively. The abdominal incision was covered with plastic wrap. A small incision was made in the perineum to allow placement of EMG electrodes into the periurethral musculature. EMG electrodes were also placed into the muscular tissue of the anus. EMG electrodes were connected to preamplifiers (Grass P511, Quincey, Mass.) with low and high pass filters set at 10 and 3000 HZ. […] A catheter inserted into the carotid artery was connected to a pressure transducer (Statham Gould, Cleveland, Ohio) to record arterial pressure, which was used to trigger a heart rate meter (Biotach, Gould, Cleveland, Ohio). A catheter was inserted into the trachea to allow for artificial respiration and monitoring of expired CO2 (Sensor Medics, Anaheim, Calif.). EMG potentials, rate meter output, bladder and arterial pressure, heart rate, and expired CO2 measurements were recorded on a physiograph (Gould, TA4000, Cleveland, Ohio) and stored on an 8-channel digital audio tape recorder (SONY PC-108M, Tokyo, Japan).
After establishing control levels of anal and urethral activity, compounds were administered intravenously. […]

muscarinic receptors = experiment: Inhibition of 3H-oxotremorine-M binding to muscarinic receptors (rat cerebral cortical membranes); parameters: species or system rat (male Sprague-Dawley); conditions: 3 nM 3H-oxotremorine-M, pH 7.4, 15 minutes at 25° C., read-out: Inhibition of 3H-Oxo
Description: The affinity of the compounds for the muscarinic receptors was determined using the non-selective agonist ligand, ^3 H-oxotremorine-M. Birdsdall N. J. M., Hulme E. C., and Burgen A. S. V., "The Character of Muscarinic Receptors in Different Regions of the Rat Brain", 207 Proc. Roy. Soc. 1 (London, Series B, 1980). Each compound was tested to determine the affinity of the compound for the muscarinic receptors using the following procedure.
For in vitro binding, male Sprague-Dawley (Harlan Sprague-Dawley, Indianapolis, IN) rats weighing from about 100 to about 150 grams each were sacrificed by decapitation. The brains were quickly removed and the cerebral cortex were dissected from the brain. The cerebral cortex tissue was homogenized in 10 volumes of 0.32M sucrose and homogenized for about 10 minutes at about 1000×g. The supernatant was centrifuged at about 12,000×g for about 10 minutes and the resulting pellet was resuspended in 20 mM tris-Cl, pH 7.4. The resuspended pellet was centrifuged again for about 10 minutes at about 50,000×g. The resulting homogenate was preincubated for about 10 minutes at about 25° C. and centrifuged again for about 10 minutes at about 50,000×g. The pellet was resuspended at 1 gram of pellet per 3 ml of buffer and frozen at about -80° C. until used.
The aforementioned homogenates mixture was incubated for about 15 minutes at about 25° C. and then the homogenates were filtered through glass filters (Whatman, GF/C) with vacuum. The filters were washed 3 times with about 2 ml of cold tris-Cl buffer, and placed in scintillation vials containing about 10 ml of scintillation fluid (Ready Protein+, Beckman, Fullerton, Calif.). Radioactivity trapped on the filters was determined by liquid scintillation spectrometry. Nonspecific binding was determined using 1 μM atropine.

## CNC(=O)Oc1ccc2c(c1)[C@]1(C)CCN(C)[C@@H]1N2C [physostigmine]
vesico-anal reflex; rat, in vivo
  suppression of the VA reflex by cholinesterase inhibitors: suppressed the VA reflex in a dose-dependent, atropine-sensitive manner

## C[N+]1(C)[C@@H]2C[C@@H](OC(=O)[C@H](CO)c3ccccc3)C[C@H]1[C@@H]1O[C@@H]12 [Scopolamine methyl bromide]
vesico-anal reflex; 1-30 ug/kg
  blocking of the cholinergic agonist-mediated inhibition of the vesico-anal reflex: ineffective at blocking the cholinergic agonist-mediated inhibition of the vesico-anal reflex

## CN1[C@@H]2CC[C@H]1C[C@@H](OC(=O)C(CO)c1ccccc1)C2 (stereo partly drawn) [atropine]
vesico-anal reflex
  duration of the increase in vesico-anal reflex activity: 15 min
  increases in vesico-anal reflex activity when administered alone: robust, but transient

## O=C1CCCN1CC#CCN1CCCC1 [Oxotremorine]
vesico-anal reflex; atropine 0.3-1 mg/kg
  reversal of the inhibition of vesico-anal reflex activity by atropine: reversed by atropine
vesico-anal reflex; oxotremorine 1-30 μg/kg iv, test compounds 0.01-1.0 mg/kg iv
  vesico-anal reflex activity (inhibited to % of control): 10 % of control
vesico-anal reflex; oxotremorine 1-30 μg/kg iv, test compounds 0.01-1.0 mg/kg iv, urethane-anesthetized rats, 0.5% acetic acid
  inhibition of vesico-anal reflex activity: dose-dependent inhibition of vesico-anal reflex activity

## CCCOc1nsnc1C1=CCCN(C)C1 [Compound 3, 1,2,5,6-Tetrahydro-1-methyl-3-(3-propoxy-1,2,5-thiadiazol-4-yl)pyridine oxalate]
Muscarinic receptors
  IC50: 1.6 nM

## CCCSc1nsnc1C1=CCCN(C)C1 [Compound 47, 3-(3-Propylthio-1,2,5-thiadiazol-4-yl)-1,2,5,6-tetrahydro-1-methylpyridine oxalate]
Muscarinic receptors
  IC50: 0.9 nM

## COc1nsnc1C1=CCCN(C)C1 [Compound 1, 1,2,5,6-Tetrahydro-3-(3-methoxy-1,2,5-thiadiazol-4-yl)-1-methylpyridine oxalate]
Muscarinic receptors
  IC50: 22 nM

## CCCCOc1nsnc1C1=CCCN(C)C1 [Compound 4, 3-(3-Butoxy-1,2,5-thiadiazol-4-yl)-1,2,5,6-tetrahydro-1-methylpyridine oxalate]
Muscarinic receptors
  IC50: 2 nM

## CCOc1nsnc1C1=CCCN(C)C1 [Compound 2, 3-(3-Ethoxy-1,2,5-thiadiazol-4-yl)-1,2,5,6-tetrahydro-1-methylpyridine oxalate]
Muscarinic receptors
  IC50: 5.7 nM

## CCN(CC)CC#CCOC(=O)C(O)(c1ccccc1)C1CCCCC1 (stereo not drawn) [oxybutynin]
vesico-anal reflex
  duration of the increase in vesico-anal reflex activity: 15 min
  increases in vesico-anal reflex activity when administered alone: robust, but transient

## C=CCCCCOc1nsnc1C1=CCCN(C)C1 [Compound 33, 3-(3-(5-Hexenyloxy)-1,2,5-thiadiazol-4-yl)-1,2,5,6-tetrahydro-1-methylpyridine oxalate]
Muscarinic receptors
  IC50: 2.7 nM
